Laboratory results as given in patent US20250051319A1 (AUGUSTINE THERAPEUTICS, priority 2021, published 2025).

What follows are compounds tested against catalytic domain 2 (CD2) of HDAC6 (Homo sapiens (Human), UniProt Q9UBN7) (assay: Cellular target engagement assay - NanoBRET). Settings: NanoLuc-HDAC6(CD2) in HEK293T cells, 2 hours, read-out: IC50 (HDAC6(CD2) interaction).
Type: cell-based
Protocol: NanoBRET target engagement was performed against the catalytic domain 2 (CD2) of HDAC6, with minor modifications of kit manufacturer protocol (Promega). Expression of exogenous NanoLuc-HDAC6(CD2) fusion and in HEK293T was achieved following transient transfection with FuGENE HD Transfection Reagent (Promega). The intracellular target engagement assay on HDAC6(CD2) was performed in a 384-well plate format with 8,000 cells per well and a tracer concentration of 0.125 μM or 0.600 μM for HDAC6(CD2). Compounds (dissolved in 100% DMSO) or DMSO (vehicle) were added either manually by diluting them in culture medium at 8× final assay concentration and then adding 5 μL to assay plate or in an automated way by adding […] compound to 5 μL OptiMEM without phenol red (Gibco) using the Echo650 (Labcyte). Tracer solution was added to the cells before seeding 35 μL cell/tracer mixture in the assay plate. The final reaction volume was 40 μL, final DMSO concentration was 1.4% (manual compound addition) or 1.25% (automated compound addition). Assay plates were incubated at 37° C. in a humidified atmosphere containing 5% C02 for 2 hours. The NanoBRET Nano-glo Substrate/Inhibitor was prepared by diluting NanoBRET Nano-Glo Substrate (1:332) and Extracellular Inhibitor (1:1000) in assay medium (Promega). […] BRET ratios were calculated from acceptor/donor signal ratio (mBRET=acceptor/donor*1000) and normalized for each plate. Percentage inhibition was calculated by setting the mBRET obtained with cells without tracer to 100%, while the mBRET obtained with uninhibited cells with tracer was set to 0%. IC50-values were calculated from the percentage inhibition with the log(inhibitor) vs. response—Variable slope (four parameters) nonlinear regression in GraphPad Prism software.

Chain of catalytic domain 2 (CD2) of HDAC6 (Q9UBN7 482-800): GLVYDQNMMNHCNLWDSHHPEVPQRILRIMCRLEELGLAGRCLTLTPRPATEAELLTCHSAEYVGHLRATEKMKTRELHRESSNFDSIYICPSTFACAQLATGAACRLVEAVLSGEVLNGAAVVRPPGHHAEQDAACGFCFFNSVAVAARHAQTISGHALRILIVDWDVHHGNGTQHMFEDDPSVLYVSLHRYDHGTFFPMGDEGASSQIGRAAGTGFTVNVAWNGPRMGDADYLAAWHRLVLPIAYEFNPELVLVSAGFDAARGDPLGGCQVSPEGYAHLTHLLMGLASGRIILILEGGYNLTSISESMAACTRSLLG

IC50 [nM]	Compound
100 to 500	O=C(CO)NCc1ccc(C(=O)CSc2nccc3ccncc23)s1 [Example 180, N-((5-(2-((2,7-naphthyridin-1-yl)thio)acetyl)thiophen-2-yl)methyl)-2-hydroxyacetamide]
100 to 500	COc1ccc2nc(C)nc(SCC(=O)c3ccc(CNC(=O)N(C)C)s3)c2c1 [Example 189, 3-((5-(2-((6-methoxy-2-methylquinazolin-4-yl)thio)acetyl)thiophen-1-yl)methyl)-1,1-dimethylurea]
≤ 100	CCOc1ccc2nc(C)nc(SCC(=O)c3ccc(CNC(=O)CO)s3)c2c1 [Compound 144, N-((5-(2-((6-ethoxy-2-methylquinazolin-4-yl)thio)acetyl)thiophen-2-yl)methyl)-2-hydroxyacetamide]
≤ 100	CC(=O)NCc1ccc(C(=O)CSc2nc(C(F)(F)F)nc3ccccc23)s1 [Compound 99, N-((5-(2-((2-(trifluoromethyl)quinazolin-4-yl)thio)acetyl)thiophen-2-yl)methyl)acetamide]
100 to 500	Cc1nc(SCC(=O)c2ccc(CNC(=O)CO)s2)c2ccc(F)cc2n1 [Compound 68, N-((5-(2-((7-fluoro-2-methylquinazolin-4-yl)thio)acetyl)thiophen-2-yl)methyl)-2-hydroxyacetamide]
100 to 500	Cc1nc(SCC(=O)c2ccc(CNC(=O)C3CC3(F)F)s2)c2cc(OC(F)(F)F)ccc2n1 (centres unmarked) [Compound 120, 2,2-difluoro-N-((5-(2-((2-methyl-6-(trifluoromethoxy)quinazolin-4-yl)thio)acetyl)thiophen-2-yl)methyl)cyclopropane-1-carboxamide]
≤ 100	O=C(CSc1nc(C(F)(F)F)nc2ncccc12)c1ccc(CNS(=O)(=O)CC(F)(F)F)s1 [Compound 123, 2,2,2-trifluoro-N-((5-(2-((2-(trifluoromethyl)pyrido[2,3-d]pyrimidin-4-yl)thio)acetyl)thiophen-2-yl)methyl)ethane-1-sulfonamide]
500 to 1000	Cn1ncc2c(SCC(=O)c3ccc(CNC(=O)C(C)(C)O)s3)ncnc21 [Compound 52, 2-hydroxy-2-methyl-N-((5-(2-((1-methyl-1H-pyrazolo[3,4-d]pyrimidin-4-yl)thio)acetyl)thiophen-2-yl)methyl)propanamide]
100 to 500	COc1ccc2nc(C)nc(SCC(=O)c3ccc(CNC(=O)[C@@H](C)O)s3)c2c1 [Compound 186, (R)-2-hydroxy-N-((5-(2-((6-methoxy-2-methylquinazolin-4-yl)thio)acetyl)thiophen-2-yl)methyl)propanamide]
100 to 500	COc1ccc2nc(C(F)(F)F)nc(SCC(=O)c3ccc(CNC(=O)C(C)(C)O)s3)c2c1 [Compound 134, 2-hydroxy-N-((5-(2-((6-methoxy-2-(trifluoromethyl)quinazolin-4-yl)thio)acetyl)thiophen-2-yl)methyl)-2-methylpropanamide]
≤ 100	CCOc1cc2c(SCC(=O)c3ccc(CNC(=O)CO)s3)nc(C)nc2cn1 [Compound 145, N-((5-(2-((6-ethoxy-2-methylpyrido[3,4-d]pyrimidin-4-yl)thio)acetyl)thiophen-2-yl)methyl)-2-hydroxyacetamide]
≤ 100	COc1cc2c(SCC(=O)c3ccc(CNC(=O)CO)s3)nc(C)nc2cn1 [Compound 121, 2-hydroxy-N-((5-(2-((6-methoxy-2-methylpyrido[3,4-d]pyrimidin-4-yl)thio)acetyl)thiophen-2-yl)methyl)acetamide]
500 to 1000	COc1ccc2nc(C)nc(SCC(=O)c3ccc(CNC(=O)C4CC4(F)F)s3)c2c1 (centres unmarked) [Example 39, 2,2-difluoro-N-((5-(2-((6-methoxy-2-methylquinazolin-4-yl)thio)acetyl)thiophen-2-yl)methyl)cyclopropane-1-carboxamide]
100 to 500	COc1ccc2nc(C)nc(SCC(=O)c3ccc(CNC(=O)C(F)F)s3)c2c1 [Compound 172, 2,2-difluoro-N-((5-(2-((6-methoxy-2-methylquinazolin-4-yl)thio)acetyl)thiophen-2-yl)methyl)acetamide]
1000 to 10000	Cn1ncc2c(SCC(=O)c3ccc(CNS(=O)(=O)c4ccccc4)s3)ncnc21 [Compound 88, N-((5-(2-((1-methyl-1H-pyrazolo[3,4-d]pyrimidin-4-yl)thio)acetyl)thiophen-2-yl)methyl)benzenesulfonamide]
≤ 100	Cn1cc2c(SCC(=O)c3ccc(CNC(=O)C(C)(C)O)s3)nc(C(F)(F)F)nc2n1 [Compound 48, 2-hydroxy-2-methyl-N-((5-(2-((2-methyl-6-(trifluoromethyl)-2H-pyrazolo[3,4-d]pyrimidin-4-yl)thio)acetyl)thiophen-2-yl)methyl)propanamide]

IC50 [nM]	Compound
100 to 500	COc1ccc2nc(C)nc(SCC(=O)c3ccc(CNC(=O)C4CCCN4)s3)c2c1 (centres unmarked) [Compound 184, N-((5-(2-((6-methoxy-2-methylquinazolin-4-yl)thio)acetyl)thiophen-2-yl)methyl)pyrrolidine-2-carboxamide]
1000 to 10000	COc1ccc2oc(SCC(=O)c3ccc(CNC(=O)CO)s3)nc2c1 [Example 167, 2-hydroxy-N-((5-(2-((5-methoxybenzo[d]oxazol-2-yl)thio)acetyl)thiophen-2-yl)methyl)acetamide]
100 to 500	O=C(CO)NCc1ccc(C(=O)CSc2nccc3ncccc23)s1 [Example 179, N-((5-(2-((1,6-naphthyridin-5-yl)thio)acetyl)thiophen-2-yl)methyl)-2-hydroxyacetamide]
1000 to 10000	COc1ccc2nc(SCC(=O)c3ccc(CNC(=O)CO)s3)[nH]c2n1 [Example 173, 2-hydroxy-N-((5-(2-((5-methoxy-3H-imidazo[4,5-b]pyridin-2-yl)thio)acetyl)thiophen-2-yl)methyl)acetamide]
100 to 500	Cn1ncc2c(SCC(=O)c3ccc(CNC(=O)C(C)(C)C)s3)ncnc21 [Compound 102, N-((5-(2-((1-methyl-1H-pyrazolo[3,4-d]pyrimidin-4-yl)thio)acetyl)thiophen-2-yl)methyl)pivalamide]
100 to 500	O=C(CO)NCc1ccc(C(=O)CSc2nc(C(F)(F)F)nc3ccc(N4CCOCC4)cc23)s1 [Example 63]
100 to 500	Cc1nc(SCC(=O)c2ccc(CNC(=O)C(C)(C)C)s2)c2ncccc2n1 [Example 18, N-((5-(2-((2-methylpyrido[3,2-d]pyrimidin-4-yl)thio)acetyl)thiophen-2-yl)methyl)pivalamide]
100 to 500	COc1cnc2nc(C)nc(SCC(=O)c3ccc(CNC(=O)OC(C)(C)C)s3)c2c1 [Example 190, tert-butyl ((5-(2-((6-methoxy-2-methylpyrido[2,3-d]pyrimidin-4-yl)thio)acetyl)thiophen-2-yl)methyl)carbamate]
500 to 1000	Cc1nc(SCC(=O)c2ccc(CNC(=O)CO)s2)c2cn(C)nc2n1 [Compound 65, N-((5-(2-((2,6-dimethyl-2H-pyrazolo[3,4-d]pyrimidin-4-yl)thio)acetyl)thiophen-2-yl)methyl)-2-hydroxyacetamide]
100 to 500	COc1ccc2nc(C(F)F)nc(SCC(=O)c3ccc(CNC(=O)CO)s3)c2c1 [Compound 139, N-((5-(2-((2-(difluoromethyl)-6-methoxyquinazolin-4-yl)thio)acetyl)thiophen-2-yl)methyl)-2-hydroxyacetamide]
1000 to 10000	Cn1ncc2c(SCC(=O)c3ccc(CNS(=O)(=O)C4CC4)s3)ncnc21 [Compound 89, N-((5-(2-((1-methyl-1H-pyrazolo[3,4-d]pyrimidin-4-yl)thio)acetyl)thiophen-2-yl)methyl)cyclopropanesulfonamide]
100 to 500	COc1ccc2nc(C)nc(SCC(=O)c3ccc(CNC(=O)C(C)(C)C)s3)c2c1 [Example 17, N-((5-(2-((6-methoxy-2-methylquinazolin-4-yl)thio)acetyl)thiophen-2-yl)methyl)pivalamide]
100 to 500	Cc1cc2nc(C(F)(F)F)nc(SCC(=O)c3ccc(CNC(=O)CO)s3)n2n1 [Compound 107, 2-hydroxy-N-((5-(2-((7-methyl-2-(trifluoromethyl)pyrazolo[1,5-a][1,3,5]triazin-4-yl)thio)acetyl)thiophen-2-yl)methyl)acetamide]
≤ 100	Cc1nc(SCC(=O)c2ccc(CNC(=O)CO)s2)c2cc(N(C)C)ncc2n1 [Compound 149, N-((5-(2-((6-(dimethylamino)-2-methylpyrido[3,4-d]pyrimidin-4-yl)thio)acetyl)thiophen-2-yl)methyl)-2-hydroxyacetamide]
100 to 500	CC(=O)NCCc1ccc(C(=O)CSc2nc(C(F)(F)F)nc3ccccc23)s1 [Compound 100, N-(2-(5-(2-((2-(trifluoromethyl)quinazolin-4-yl)thio)acetyl)thiophen-2-yl)ethyl)acetamide]
≤ 100	Cn1cc2c(SCC(=O)c3ccc(CNC(=O)C4(O)CC4)s3)nc(C(F)(F)F)nc2n1 [Compound 49, 1-hydroxy-N-((5-(2-((2-methyl-6-(trifluoromethyl)-2H-pyrazolo[3,4-d]pyrimidin-4-yl)thio)acetyl)thiophen-2-yl)methyl)cyclopropane-1-carboxamide]
